Test results taken from publication PMC10975498, “Trimethyltin(IV) Bearing 3-(4-Methyl-2-oxoquinolin-1(2H)-yl)propanoate Causes Lipid Peroxidation-Mediated Autophagic Cell Death in Human Melanoma A375 Cells” (Pharmaceuticals, 2024).

Target: T1, Bovine Serum Albumin (BSA) (Bos taurus, UniProt P02769)
T1 construct: gene ALB
Test: spectrofluorometric titration (tryptophan fluorescence quenching, double-log Stern-Volmer) at […] and […] °C; Kb given is at […] °C
Format: binding
Details: read-out: spectrofluorometric titration (tryptophan fluorescence quenching, double-log Ste) (converted)

T1 sequence (P02769 25-607): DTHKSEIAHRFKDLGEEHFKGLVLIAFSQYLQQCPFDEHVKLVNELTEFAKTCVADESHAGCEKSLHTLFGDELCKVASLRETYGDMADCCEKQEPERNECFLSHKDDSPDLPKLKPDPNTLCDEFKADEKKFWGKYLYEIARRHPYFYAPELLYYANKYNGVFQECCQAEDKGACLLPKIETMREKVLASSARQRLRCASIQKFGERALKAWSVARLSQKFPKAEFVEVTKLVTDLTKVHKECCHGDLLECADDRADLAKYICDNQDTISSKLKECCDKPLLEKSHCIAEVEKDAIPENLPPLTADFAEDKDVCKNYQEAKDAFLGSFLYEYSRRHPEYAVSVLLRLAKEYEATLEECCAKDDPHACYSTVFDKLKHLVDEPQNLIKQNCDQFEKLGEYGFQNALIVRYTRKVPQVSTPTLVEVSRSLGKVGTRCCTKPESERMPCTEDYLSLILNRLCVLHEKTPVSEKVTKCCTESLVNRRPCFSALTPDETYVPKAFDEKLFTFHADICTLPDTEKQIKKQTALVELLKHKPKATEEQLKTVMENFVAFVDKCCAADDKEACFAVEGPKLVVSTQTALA

`Cc1cc(=O)n(CCC(=O)[O][Sn]([CH3])([CH3])[CH3])c2ccccc12` [Me3SnL, (3-(4-methyl-2-oxoquinolin-1(2H)-yl)propanoato)trimethyltin(IV)] was tested, and the Kd was 422 nM.
